Each compound was assayed against T1, P2X7 (Homo sapiens, UniProt Q99572) (assay: High Throughput P2X7 Calcium Mobilization Assay (Example 4A), antagonist activity). Conditions: SH-SY5Y cells, 50% decrease in fluorescence response of cells exposed to 80 μM BzATP.
T1 construct: host or cells: SH-SY5Y
T1 sequence (Q99572 1-595): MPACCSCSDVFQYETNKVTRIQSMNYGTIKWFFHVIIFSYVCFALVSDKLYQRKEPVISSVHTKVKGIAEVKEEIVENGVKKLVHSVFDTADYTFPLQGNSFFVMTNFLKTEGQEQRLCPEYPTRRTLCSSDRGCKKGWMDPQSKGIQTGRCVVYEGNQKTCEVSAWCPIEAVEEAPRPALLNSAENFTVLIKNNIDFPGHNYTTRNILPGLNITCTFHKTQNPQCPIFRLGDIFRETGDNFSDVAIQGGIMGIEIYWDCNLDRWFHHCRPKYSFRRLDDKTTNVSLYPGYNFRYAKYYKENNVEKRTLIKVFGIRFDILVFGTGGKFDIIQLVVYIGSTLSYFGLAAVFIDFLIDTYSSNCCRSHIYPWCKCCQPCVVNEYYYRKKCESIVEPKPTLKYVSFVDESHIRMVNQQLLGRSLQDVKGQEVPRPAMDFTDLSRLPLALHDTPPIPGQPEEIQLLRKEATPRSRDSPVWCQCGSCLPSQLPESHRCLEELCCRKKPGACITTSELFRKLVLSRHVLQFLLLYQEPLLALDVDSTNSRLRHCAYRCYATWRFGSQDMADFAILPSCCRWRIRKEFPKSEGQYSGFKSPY
Format: cell-based
Experimental: A. High Throughput P2X7 Calcium Mobilization Assay
SH-SY5Y cells, ATCC Number CRL-2266, (American Type Culture Collection, Manassas, Va.) are cultured under DMEM/High medium supplemented with 10% FBS, and 10 mM HEPES (Invitrogen Corp., Carlsbad, Calif.) in 5% CO2 and at 37° C. One day prior to the experiment, cells are plated at a density of 100,000 cells/well in a 96 well black/clear TC plate (Corning® Costar®, Sigma-Aldrich Co., St. Louis, Mo.). At the beginning of the experiment, the culture medium is removed and cells are incubated with 50 μL of 2.3 μM Fluo-4 AM dye (Invitrogen Corp.) in the assay solution (5 mM KCl, 9.6 mM NaH2PO4.H2O, 25 mM HEPES, 280 mM Sucrose, 5 mM Glucose, and 0.5 mM CaCl2; pH is adjusted to 7.4 with NaOH) for an hour at 37° C. After one hour dye incubation, wells are rinsed once with 50 μL assay solution, and are then incubated for an hour at room temperature with 100 μL assay solution containing the test compound. The final concentration of test compound generally ranges from 1 to 2500 nM; for positive control cells, no test compound is added. After the one hour incubation, plates are transferred to a FLIPR^TETRA instrument (Molecular Devices, Sunnyvale, Calif.) for calcium mobilization analysis.
For determination of antagonist activity, 50 μL of P2X7 agonist (2′(3′)-O-(4-benzoyl-benzoyl)adenosine 5′-triphosephate (BzATP; Sigma-Aldrich) in the assay solution is transferred using the FLIPR into the plate, such that the final agonist concentration is 80 μM (about EC50). In negative control cells, 50 μL of assay solution without agonist is added at this stage. The peak fluorescence signal over a 2 minute period is then measured.
First, the average maximum relative fluorescent unit (RFU) response from the negative control wells (no agonist) is subtracted from the maximum response detected for each of the other experimental wells. Second, average maximum RFU response is calculated for the positive control wells (agonist wells). Then, percent inhibition for each compound tested is calculated using the equation: Percent Inhibition=100−100×(Peak Signal in Test Cells/Peak Signal in Control Cells) The % inhibition data is plotted as a function of test compound concentration and test compound IC50 is determined using, for example, KALEIDAGRAPH software (Synergy Software, Reading, Pa.) best fit of the data to the equation: y=m1*(1/(1+(m2/m0)^m3)) where y is the percent inhibition, m0 is […], m1 is the maximum RFU, m2 corresponds to the test compound IC50 (the concentration required to provide a 50% decrease, relative to the response observed in the presence of agonist and without antagonist) and m3 is the Hill coefficient.

Compound	IC50 [nM]
CN(Cc1cc2c(C(=O)NCC34CC5CC(CC(C5)C3)C4)cccn2n1)Cc1ccccc1F [Compound 68, N-(adamantan-1-ylmethyl)-2-{[(2-fluorobenzyl)(methyl)amino]methyl}pyrazolo [1,5-a]pyridine-4-carboxamide]	≤ 2000
CC(C)CC(CNC(=O)c1cccn2nc(C(=O)N3CCC[C@@H](N)C3)cc12)c1ccccc1 (stereo partly drawn) [Compound 43, 2-{[(3R)-3-aminopiperidin-1-yl]carbonyl}-N-(4-methyl-2-phenylpentyl)pyrazolo [1,5-a]pyridine-4-carboxamide]	≤ 2000
CN(CCF)C(=O)c1cc2c(C(=O)NCC3(c4ccc(C(F)(F)F)cc4)CCCCC3)cccn2n1 [Compound 93, Pyrazolo[1,5-a]pyridine-2,4-dicarboxylic acid 2-[(2-fluoro-ethyl)-methyl-amide]-4-{[1-(4-trifluoromethyl-phenyl)-cyclohexylmethyl]-amide}]	≤ 2000
CC(C)CC(CNC(=O)c1cccn2nc(C(=O)N3CC[C@@H](N)C3)cc12)c1ccc(Cl)cc1 (stereo partly drawn) [Compound 71, 2-{[(3R)-3-aminopyrrolidin-1-yl]carbonyl}-N-[2-(4-chlorophenyl)-4-methylpentyl]pyrazolo [1,5-a]pyridine-4-carboxamide]	≤ 2000
CN(CC(F)(F)F)C(=O)c1cc2c(C(=O)NCC34CC5CC(CC(C5)C3)C4)cccn2n1 [Compound 76, 4-N-(adamantan-1-ylmethyl)-2-N-methyl-2-N-(2,2,2-trifluoroethyl)pyrazolo [1,5-a]pyridine-2,4-dicarboxamide]	≤ 2000
O=C(CC12CC3CC(CC(C3)C1)C2)Nc1cccn2nc(C(=O)N3CCn4cncc4C3)cc12 [Compound 97, 2-adamantan-1-yl-N-[2-(5,6-dihydroimidazo[1,5-a]pyrazin-7(8H)-ylcarbonyl)pyrazolo [1,5-a]pyridin-4-yl]acetamide]	≤ 2000
O=C(NCC12CC3CC(CC(C3)C1)C2)c1cccn2nc(CC3=NCCN3)cc12 [Compound 89, N-(adamantan-1-ylmethyl)-2-(4,5-dihydro-1H-imidazol-2-ylmethyl)pyrazolo[1,5-a]pyridine-4-carboxamide]	≤ 2000
CN(Cc1cnccn1)Cc1cc2c(C(=O)NCC34CC5CC(CC(C5)C3)C4)cccn2n1 [Compound 55, N-(adamantan-1-ylmethyl)-2-{[methyl(pyrazin-2-ylmethyl)amino]methyl} pyrazolo[1,5-a]pyridine-4-carboxamide]	≤ 2000
O=C(NCCF)c1cc2c(C(=O)NCC34CC5CC(CC(C5)C3)C4)cccn2n1 [Compound 62, 4-N-(adamantan-1-ylmethyl)-2-N-(2-fluoroethyl)pyrazolo [1,5-a]pyridine-2,4-dicarboxamide]	≤ 2000
CCOC(=O)CNC(=O)c1cc2c(C(=O)NCC34CC5CC(CC(C5)C3)C4)cccn2n1 [Compound 41, ethyl N-({4-[(adamantan-1-ylmethyl)carbamoyl]pyrazolo[1,5-a]pyridin-2-yl}carbonyl)glycinate]	≤ 2000
CCOC(=O)CN(C)Cc1cc2c(C(=O)NCC34CC5CC(CC(C5)C3)C4)cccn2n1 [Compound 29, ethyl N-({4-[(adamantan-1-ylmethyl)carbamoyl]pyrazolo[1,5-a]pyridin-2-yl}methyl)-N-methylglycinate]	≤ 2000
O=C(NCC(F)F)c1cc2c(C(=O)NCC34CC5CC(CC(C5)C3)C4)cccn2n1 [Compound 63, 4-N-(adamantan-1-ylmethyl)-2-N-(2,2-difluoroethyl)pyrazolo [1,5-a]pyridine-2,4-dicarboxamide]	≤ 2000
CN(Cc1cncn1C)C(=O)c1cc2c(C(=O)NCC34CC5CC(CC(C5)C3)C4)cccn2n1 [Compound 26, 4-N-(adamantan-1-ylmethyl)-2-N-methyl-2-N-[(1-methyl-1H-imidazol-5-yl)methyl]pyrazolo[1,5-a]pyridine-2,4-dicarboxamide]	≤ 2000
O=C(Cc1cc2c(C(=O)NCC34CC5CC(CC(C5)C3)C4)cccn2n1)NCC(F)F [Compound 60, N-(adamantan-1-ylmethyl)-2-{2-[(2,2-difluoroethyl)amino]-2-oxoethyl}pyrazolo[1,5-a]pyridine-4-carboxamide]	≤ 2000
O=C1CC2(CCN(C(=O)c3cc4c(C(=O)NCC56CC7CC(CC(C7)C5)C6)cccn4n3)CC2)CN1 [Compound 40, N-(adamantan-1-ylmethyl)-2-[(3-oxo-2,8-diazaspiro[4.5]dec-8-yl)carbonyl]pyrazolo [1,5-a]pyridine-4-carboxamide]	≤ 2000
O=C(NCC12CC3CC(CC(C3)C1)C2)c1cccn2nc(C(=O)N3CCOCC3)cc12 [Compound 22, N-(adamantan-1-ylmethyl)-2-(morpholin-4-ylcarbonyl)pyrazolo [1,5-a]pyridine-4-carboxamide]	≤ 2000
CN(C(=O)c1cc2c(C(=O)NCC34CC5CC(CC(C5)C3)C4)cccn2n1)C1CCOCC1 [Compound 37, 4-N-(adamantan-1-ylmethyl)-2-N-methyl-2-N-(tetrahydro-2H-pyran-4-yl)pyrazolo[1,5-a]pyridine-2,4-dicarboxamide]	≤ 2000
O=C1NCC2(CCN(C(=O)c3cc4c(C(=O)NCC56CC7CC(CC(C7)C5)C6)cccn4n3)CC2)O1 [Compound 36, N-(adamantan-1-ylmethyl)-2-[(2-oxo-1-oxa-3,8-diazaspiro[4.5]dec-8-yl)carbonyl]pyrazolo [1,5-a]pyridine-4-carboxamide]	≤ 2000
CN(C(=O)c1cc2c(C(=O)NCC34CC5CC(CC(C5)C3)C4)cccn2n1)C1CCOC1 (stereo not shown) [Compound 28, 4-N-(adamantan-1-ylmethyl)-2-N-methyl-2-N-(tetrahydrofuran-3-yl)pyrazolo[1,5-a]pyridine-2,4-dicarboxamide]	≤ 2000
CC(C)CC(CNC(=O)c1cccn2nc(C(=O)N3CCn4cncc4C3)cc12)c1ccc(C(F)(F)F)cc1 (stereo not shown) [Compound 88, 2-(5,6-dihydroimidazo[1,5-a]pyrazin-7(8H)-ylcarbonyl)-N-{4-methyl-2-[4-(trifluoromethyl)phenyl]pentyl}pyrazolo[1,5-a]pyridine-4-carboxamide]	≤ 2000
O=C(O)CC(c1ccccc1)c1cc2c(C(=O)NCC34CC5CC(CC(C5)C3)C4)cccn2n1 (stereo not shown) [Compound 106, 3-{4-[(adamantan-1-ylmethyl)carbamoyl]pyrazolo[1,5-a]pyridin-2-yl}-3-phenylpropanoic acid]	≤ 2000
CCN[C@@H]1CCN(C(=O)c2cc3c(C(=O)NCC45CC6CC(CC(C6)C4)C5)cccn3n2)C1 [Compound 47, N-(adamantan-1-ylmethyl)-2-{[(3R)-3-(ethylamino)pyrrolidin-1-yl]carbonyl}pyrazolo [1,5-a]pyridine-4-carboxamide]	≤ 2000
O=C(Cc1cc2c(C(=O)NCC34CC5CC(CC(C5)C3)C4)cccn2n1)NCC(F)(F)F [Compound 61, N-(adamantan-1-ylmethyl)-2-{2-oxo-2-[(2,2,2-trifluoroethyl)amino]ethyl}pyrazolo[1,5-a]pyridine-4-carboxamide]	≤ 2000
O=C(NCC12CC3CC(CC(C3)C1)C2)c1cccn2nc(C(Cc3ccccc3)C(=O)O)cc12 (stereo not shown) [Compound 103, 2-{4-[(adamantan-1-ylmethyl)carbamoyl]pyrazolo[1,5-a]pyridin-2-yl}-3-phenylpropanoic acid]	≤ 2000
CCN(CC)[C@@H]1CCN(C(=O)c2cc3c(C(=O)NCC45CC6CC(CC(C6)C4)C5)cccn3n2)C1 [Compound 31, N-(adamantan-1-ylmethyl)-2-{[(3R)-3-(diethylamino)pyrrolidin-1-yl]carbonyl}pyrazolo [1,5-a]pyridine-4-carboxamide]	≤ 2000
